{"source": "patent US20220110888A1", "about": "“COMPOSITION FOR THE TREATMENT OF PSORIASIS” (Charlotte's Web, Inc., priority 2020, published 2022)", "assay": "Systemic exposure to CBD after dermal application"}
{"smiles": "C=C(C)[C@@H]1CCC(C)=C[C@H]1c1c(O)cc(CCCCC)cc1O", "note": "[CBD, cannabidiol]", "values": [{"measurement": "reach of the bloodstream / systemic circulation", "value": "does not reach the bloodstream"}]}
